Read-outs that look alike come from different tables or passages of the source.
Test system: Influenza A/WSN/33/1
Assay type: cell-based

Compound: CCOC(=O)C1=C[C@@H](OC(CC)CC)[C@H](NC(C)=O)[C@@H](N)C1 [oseltamivir, (3R,4R,5S)-4-acetylamino-5-amino-3(1-ethylpropoxy)-1-cyclohexene-1-carboxylic acid ethyl ester]
- reduced influenza titers compared to untreated (air) control (1 nM oseltamivir in basolateral media): 5 fold

Compound: NC(=O)c1ncn([C@@H]2O[C@H](CO)[C@@H](O)[C@H]2O)n1 [ribavirin]
- reduced influenza titers compared to untreated (air) control (10 nM ribavirin in basolateral media, p>0.05): 6.3 fold

Compound: CC(N)C12CC3CC(CC(C3)C1)C2 (stereo not drawn) [rimantadine]
- reduced influenza titers compared to untreated (air) control (1 nM rimantadine in basolateral media, p>0.05): 9.6 fold
- reduced viral titers compared to the untreated control (10 nM rimantadine in basolateral media, p<0.001): 185 fold

Compound: CC(=O)NC1[C@@H](NC(=N)N)C=C(C(=O)O)O[C@H]1[C@H](O)[C@H](O)CO (stereo partly drawn) [zanamivir, 5-(acetylamino)-4-[(aminoiminomethyl)-amino]-2,6-anhydro-3,4,5-trideoxy-D-glycero-D-galacto-non-2-enoic acid]
- reduced viral titers compared to the untreated control (0.1 nM zanamivir alone): 40 fold
- viral infection, dose response ([…], p<0.01 vs untreated (Air) control): reduced viral infection in a dose responsive manner
